The term melting point denotes the temperature, or range, at which the solid turns liquid.

`CCCCCCC1OC(=O)c2cc(NC(C)=O)ccc21` (stereo not drawn) [Example 8, 6-Acetamido-3-hexyl-phthalide]: the melting point lay within 135 to 137 °C.
Next, `CCC1(CC)OC(=O)c2cc(N)ccc21` [Example 25, 6-Amino-3,3-diethyl-phthalide]: 153 to 154 °C.
Take `CCCCCCCCC1OC(=O)c2cc(N)ccc21` (stereo not drawn) [Example 6, 6-Amino-3-octyl-phthalide]: the melting point lay within 124 to 125 °C.
Regarding `CCCCC1OC(=O)c2cc(NC(N)=S)ccc21` (stereo not drawn) [Example 21, 3-Butyl-6-thioureido-phthalide], the melting point was in the range of 183 to 185 °C.
Next, `CCCCCCCCC1OC(=O)c2cc(NC(C)=O)ccc21` (stereo not drawn) [Example 9, 6-Acetamido-3-octyl-phthalide]: 133 to 134 °C.
To `CCC1(CC)OC(=O)c2cc([N+](=O)[O-])ccc21` [Example 24, 3,3-Diethyl-6-nitro-phthalide] belongs 98.5 to 100 °C.
